Test results published in US5668150A, “Non-symmetrical bis-heteroarylmethoxyphenylalkyl carboxylates as inhibitors of leukotriene biosynthesis” (Abbott Laboratories, priority 1996, dated 1997).
Counter-ions that a name gives are not always drawn. Like-named read-outs stand apart in the source and are kept apart here.

Tested on: 5-Lipoxygenase
Test: Inhibition of leukotriene biosynthesis in vitro: calcium ionophore-induced LTB4 formation in human polymorphonuclear leukocytes (PMNL)
Type: cell-based
Details: calcium ionophore 8.3 μM, 15 min preincubation, 37 °C; for % I, In Vitro Inhibitory Potencies Against 5-Lipoxygenase from Stimulated LTB4 Formation in Human Polymorphonuclear Leukocytes: @ 0.10 μM; for IC50: read-out: IC50, In Vitro Inhibitory Potencies Against 5-Lipoxygenase from Stimulated LTB4 Formation in Human Polymorphonuclear Leukocytes
Procedure: Inhibition of leukotriene biosynthesis was evaluated in vitro using an assay involving calcium ionophore-induced LTB4 expressed in human (PMNL). Human PMNL isolated from heparinized (20 USP units/mL) venous blood (25 mL) obtained from healthy volunteers was layered over an equal volume of Ficoll-Hypaque Mono-Poly Resolving Medium (ICN Flow, Costa Mesa, Calif.) and centrifuged at 400×g for 40 min at 20° C. The PMNL was collected, erythrocytes lysed and washed 2× and suspended at 1.0×10^7 cells/mL in Earle's balanced salt solution with 17 mM Earle's HEPES. Aliquots of the cell suspension were preincubated with test compounds dissolved in DMSO (final concentration <2%) for 15 min. and stimulated with calcium ionophore (final concentration 8.3 μM) for 10 min. at 37 ° C. Incubations were stopped with the addition of two volumes of ice-cold methanol followed by centrifuging the cell suspensions at 4° C. for 10 rain at 450×g. The mount of LTB4 in the methanol extract was analyzed by enzyme-linked immunoassay or by HPLC analysis.

IC50 (sodium salt)	SMILES	% I, In Vitro Inhibitory Potencies Against 5-Lipoxygenase from Stimulated LTB4 Formation in Human Polymorphonuclear Leukocytes	further results
	CC(CCC(=O)O)(c1ccc(OCc2ccc3ccccc3c2)cc1)c1ccc(OCc2ccc3ccccc3n2)cc1 (centres unmarked) [Example 3, 4-(4-(2-naphthylmethoxy)phenyl)-4-(4-(2-quinolylmethoxy)phenyl)pentanoic acid]	93%	
90 nM	Cn1c(COc2ccc(C(C)(CCC(=O)O)c3ccc(OCc4ccc5ccccc5n4)cc3)cc2)nc2ccccc21 (centres unmarked) [Example 6, 4-(4-(2-(1-methyl)benzimidazolylmethoxy)phenyl)-4-(4-(2-quinolylmethoxy)phenyl)pentanoic acid sodium salt]		
80 nM	Cn1c(COc2ccc(C(C)(CCC(=O)O)c3ccc(OCc4ccc5ccccc5n4)cc3)cc2)nc2ccccc21 (centres unmarked) [Example 5, 4-(4-(2-(1-methyl)benzimidazolylmethoxy)phenyl)-4-(4-(2-quinolylmethoxy)phenyl)pentanoic acid sodium salt]		
	CC(CCC(=O)O)(c1ccc(OCc2ccc3ccccc3n2)cc1)c1ccc(OCc2nc3ccccc3s2)cc1 (centres unmarked) [Example 2, 4-(4-(2-benzothiazolylmethoxy)phenyl)-4-(4-(2-quinolylmethoxy)phenyl)pentanoic acid sodium salt]		IC50: 52 nM
	CC(CCC(=O)O)(c1ccc(OCc2ccc3ccccc3n2)cc1)c1ccc(OCc2nc3ccccc3s2)cc1 (centres unmarked) [Example 1, 4-(4-(2-benzothiazolylmethoxy)phenyl)-4-(4-(2-quinolylmethoxy)phenyl)pentanoic acid]	95%	
